Experimental data: ChEMBL document CHEMBL1201862, “PubChem BioAssay data set” (2004)
The source made the active and inactive calls.

Tests used:
Coagulation factor XII = target: T1, Coagulation factor XII (Homo sapiens, UniProt P00748); format: functional;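 note: activated factor XIIa alpha cleaving a fluorogenic AMC peptide substrate; inhibitor potency from loss of enzyme activity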
T1 sequence (P00748 whole entry): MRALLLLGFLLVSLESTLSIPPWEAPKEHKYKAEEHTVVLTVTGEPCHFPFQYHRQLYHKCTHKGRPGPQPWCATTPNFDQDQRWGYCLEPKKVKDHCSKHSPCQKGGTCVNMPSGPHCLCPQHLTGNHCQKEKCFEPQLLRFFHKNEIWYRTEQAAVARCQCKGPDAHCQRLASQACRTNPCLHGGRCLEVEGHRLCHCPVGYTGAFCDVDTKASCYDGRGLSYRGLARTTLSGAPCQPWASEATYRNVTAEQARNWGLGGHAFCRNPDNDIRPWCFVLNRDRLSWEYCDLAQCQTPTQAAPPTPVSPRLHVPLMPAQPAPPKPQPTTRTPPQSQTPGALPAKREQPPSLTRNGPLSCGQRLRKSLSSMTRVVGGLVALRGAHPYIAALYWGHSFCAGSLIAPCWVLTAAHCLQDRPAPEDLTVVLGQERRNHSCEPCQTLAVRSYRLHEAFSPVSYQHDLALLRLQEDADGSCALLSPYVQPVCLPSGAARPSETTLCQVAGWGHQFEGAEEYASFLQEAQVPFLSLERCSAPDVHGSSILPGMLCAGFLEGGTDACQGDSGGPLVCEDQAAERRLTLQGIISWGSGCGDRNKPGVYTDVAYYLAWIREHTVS

[1] = target: T2, Methionyl-tRNA synthetase, putative (Trypanosoma brucei brucei, UniProt Q38C91); format: functional, Trypanosoma brucei brucei strain 927/4 GUTat10.1
T2 sequence (Q38C91 whole entry): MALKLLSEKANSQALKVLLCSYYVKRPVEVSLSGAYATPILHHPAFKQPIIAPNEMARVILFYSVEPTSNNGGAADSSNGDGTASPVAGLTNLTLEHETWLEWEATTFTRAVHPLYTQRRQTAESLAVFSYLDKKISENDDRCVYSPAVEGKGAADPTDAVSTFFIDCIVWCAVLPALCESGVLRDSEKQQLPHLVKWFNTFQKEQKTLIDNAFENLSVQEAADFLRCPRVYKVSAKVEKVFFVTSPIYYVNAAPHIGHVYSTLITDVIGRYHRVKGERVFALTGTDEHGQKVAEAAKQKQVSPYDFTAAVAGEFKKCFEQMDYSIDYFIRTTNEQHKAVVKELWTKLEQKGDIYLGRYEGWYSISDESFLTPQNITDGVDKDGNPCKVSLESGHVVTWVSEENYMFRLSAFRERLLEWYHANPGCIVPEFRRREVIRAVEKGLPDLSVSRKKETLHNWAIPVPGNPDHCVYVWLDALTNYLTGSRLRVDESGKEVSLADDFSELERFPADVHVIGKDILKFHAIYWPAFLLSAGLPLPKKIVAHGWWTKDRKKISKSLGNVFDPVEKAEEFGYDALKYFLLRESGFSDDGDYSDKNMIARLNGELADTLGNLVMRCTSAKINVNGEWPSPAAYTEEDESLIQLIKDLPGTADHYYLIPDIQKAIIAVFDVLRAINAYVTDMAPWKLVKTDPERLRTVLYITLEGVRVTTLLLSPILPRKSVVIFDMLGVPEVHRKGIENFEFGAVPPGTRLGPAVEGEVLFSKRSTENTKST

[2] = Counterscreen for inhibitors of Trypanosoma brucei methionyl tRNA synthetase (MetRS): Luminescence-based cell-based high throughput dose response assay to identify compounds that are cytotoxic to Jurkat human T lymphocyte cells.; format: functional
[3] = target: T2, Methionyl-tRNA synthetase, putative; format: functional, Trypanosoma brucei brucei strain 927/4 GUTat10.1; remark: listed apart in the source
[4] = target: T3, Heat shock factor protein 1 (Mus musculus, UniProt P38532); assay: HSF1 potentiators in luciferase reporter cells, confirmation, cell-based, NIH3T3, luminescence, dose retest (AID 435004); format: functional;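 note: stress induced by proteasome inhibitor MG132 added 30 min after compound; luciferase reporter driven by HSF1 response element in NIH3T3 cells; actives raise luminescence as potentiators of the MG132 stress response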
T3 sequence (P38532 whole entry): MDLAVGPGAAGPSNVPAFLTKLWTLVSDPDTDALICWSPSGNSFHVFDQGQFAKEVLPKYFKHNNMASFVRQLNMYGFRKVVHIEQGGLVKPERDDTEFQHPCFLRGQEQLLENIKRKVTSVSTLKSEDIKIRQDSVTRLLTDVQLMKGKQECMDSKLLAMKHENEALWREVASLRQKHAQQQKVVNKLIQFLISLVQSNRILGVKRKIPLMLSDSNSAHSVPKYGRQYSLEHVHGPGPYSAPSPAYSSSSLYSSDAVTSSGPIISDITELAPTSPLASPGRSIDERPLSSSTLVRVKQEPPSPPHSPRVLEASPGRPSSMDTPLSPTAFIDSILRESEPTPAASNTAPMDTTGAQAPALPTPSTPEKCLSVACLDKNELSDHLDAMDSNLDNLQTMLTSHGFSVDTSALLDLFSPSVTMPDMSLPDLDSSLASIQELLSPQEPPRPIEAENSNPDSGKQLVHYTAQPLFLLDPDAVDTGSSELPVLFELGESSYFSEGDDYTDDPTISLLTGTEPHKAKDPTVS

[5] = target: Dual specificity tyrosine-phosphorylation-regulated kinase 1A (Rattus norvegicus, UniProt Q63470); format: biochemical, Homo sapiens
Fatty acid synthase [6] = target: T4, Fatty acid synthase (Homo sapiens, UniProt P49327); assay: FAS thioesterase domain inhibitors, dose response, biochemical, endpoint fluorescence intensity, uHTS hits (AID 624327); format: functional;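 note: fluorescence from hydrolysis of an O-methyl fluorescein acyl ester substrate by the enzyme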
SUMO-activating enzyme [7] = target: T5, SUMO-activating enzyme (Homo sapiens, UniProt Q9UBT2); assay: inhibitors of in vitro SUMOylation cascade, primary screen, biochemical, HTRF, uHTS (AID 2006); format: protein-complex assay
[8] = target: Peroxisome proliferator-activated receptor gamma/Nuclear receptor coactivator 1 (Homo sapiens, UniProt P37231); assay: (§1) TR-FRET dose response biochemical High Throughput Screening assay for agonists of the steroid receptor coactivator 1 (SRC-1) recruitment by the peroxisome proliferator-activated receptor gamma (PPAR gamma): non-selective agonists. [Related pubchem assays (depositor defined):AID1300, AID1808, AID504735, AID631]; format: protein assay
Major prion protein = Major prion protein (Homo sapiens, UniProt P04156); format: functional, cell-based
[9] = target: Peroxisome proliferator-activated receptor gamma/Nuclear receptor coactivator 3 (Homo sapiens, UniProt P37231); assay: as §1, with “3 (SRC-3)” for “1 (SRC-1)”, “assays: 1301 (Confirmation screen.), 1048 (Primary screen.)]” for “assays (depositor defined):AID1300, AID1808, AID504735, AID631]”; format: functional
[10] = target: T6, Short transient receptor potential channel 4 (Mus musculus, UniProt Q9QUQ5); assay: mouse TRPC4 channel inhibitors, dose response, cell-based, HEK293 TRPC4/mu-opioid, Fluo-4 calcium (AID 434942); format: functional;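 note: potency of inhibitors blocking the TRPC4 calcium response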
T6 sequence (Q9QUQ5 whole entry): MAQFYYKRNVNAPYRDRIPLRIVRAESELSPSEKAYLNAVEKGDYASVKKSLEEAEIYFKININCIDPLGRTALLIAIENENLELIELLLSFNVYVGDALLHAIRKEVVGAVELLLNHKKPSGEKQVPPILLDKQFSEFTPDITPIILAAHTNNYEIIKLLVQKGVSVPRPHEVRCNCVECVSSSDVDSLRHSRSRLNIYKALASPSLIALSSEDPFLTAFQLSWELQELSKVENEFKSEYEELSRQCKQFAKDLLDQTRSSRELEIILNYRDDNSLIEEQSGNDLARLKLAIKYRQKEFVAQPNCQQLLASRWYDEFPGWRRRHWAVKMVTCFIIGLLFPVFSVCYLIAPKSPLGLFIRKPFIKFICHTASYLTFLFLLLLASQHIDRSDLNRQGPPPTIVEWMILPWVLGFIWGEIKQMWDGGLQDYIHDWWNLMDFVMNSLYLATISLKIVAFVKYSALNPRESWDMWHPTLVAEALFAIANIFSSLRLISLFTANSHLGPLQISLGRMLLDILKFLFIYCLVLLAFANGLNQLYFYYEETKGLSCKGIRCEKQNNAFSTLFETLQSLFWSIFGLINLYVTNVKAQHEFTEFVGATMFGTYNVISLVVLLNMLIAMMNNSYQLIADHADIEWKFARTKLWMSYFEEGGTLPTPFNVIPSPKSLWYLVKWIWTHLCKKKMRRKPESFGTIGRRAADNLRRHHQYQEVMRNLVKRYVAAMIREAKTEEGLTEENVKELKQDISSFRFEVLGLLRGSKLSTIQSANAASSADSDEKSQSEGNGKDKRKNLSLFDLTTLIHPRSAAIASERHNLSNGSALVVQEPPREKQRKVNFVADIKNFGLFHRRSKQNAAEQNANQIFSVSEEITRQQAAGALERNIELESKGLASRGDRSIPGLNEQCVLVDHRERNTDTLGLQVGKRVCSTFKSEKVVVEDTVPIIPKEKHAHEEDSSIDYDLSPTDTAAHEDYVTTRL

Fatty acid synthase [11] = target: T4, Fatty acid synthase; assay: FAS thioesterase domain inhibitors, dose response, biochemical, kinetic fluorescence intensity (AID 624326); format: functional;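 note: rate of fluorescence rise from hydrolysis of a fluorogenic O-methyl fluorescein ester substrate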
SUMO-activating enzyme [12] = target: T5, SUMO-activating enzyme; assay: SUMOylation inhibitor hit validation, confirmation, SUMOylation inhibitor project, biochemical, AlphaScreen (AID 2018); format: functional
[13] = target: Peroxisome proliferator-activated receptor gamma/Nuclear receptor coactivator 2 (Homo sapiens, UniProt P37231); assay: TR-FRET dose response biochemical High Throughput Screening assay for agonists of the steroid receptor coactivator 2 (SRC-2) recruitment by the peroxisome proliferator-activated receptor gamma (PPAR gamma): non-selective agonists. [Related pubchem assays: 1297, 1032 ]; format: functional
HEK293 [14] = assay: cells; format: functional, cell-based; details: Homo sapiens
HEK293 [15] = assay: NOD2 signaling inhibitors in MDP-stimulated cells, cell-based, uHTS, luminescence (AID 2001); format: functional; details: Homo sapiens
HEK293 [16] = assay: NOD1 signaling inhibitors, primary screen, cell-based, luminescence, uHTS (AID 1578); format: functional; details: Homo sapiens
HEK293 [17] = assay: cells; format: functional, cell-based; details: Homo sapiens; remark: listed apart in the source
[18] = target: Photoreceptor-specific nuclear receptor (Homo sapiens, UniProt Q9Y5X4); format: functional, cell-based;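 note: CHO-S cells with Gal4-NCOR and VP16-NR2E3 two-hybrid luciferase reporter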
[19] = target: Glucose-6-phosphate 1-dehydrogenase (Homo sapiens, UniProt P11413); assay: human G6PD enzyme inhibitors, dose response, selectivity assay for P. falciparum G6PD inhibitor project, biochemical, fluorescence (AID 504792); format: functional
[20] = target: T7, Adenosylmethionine-8-amino-7-oxononanoate aminotransferase (Mycobacterium tuberculosis, UniProt P9WQ81); assay: Mycobacterium tuberculosis BioA enzyme inhibitor Measured in Biochemical System Using Plate Reader - 2163-02_Inhibitor_Dose_CherryPick_Activity.; format: functional, Mycobacterium tuberculosis UT205
T7 sequence (P9WQ81 whole entry): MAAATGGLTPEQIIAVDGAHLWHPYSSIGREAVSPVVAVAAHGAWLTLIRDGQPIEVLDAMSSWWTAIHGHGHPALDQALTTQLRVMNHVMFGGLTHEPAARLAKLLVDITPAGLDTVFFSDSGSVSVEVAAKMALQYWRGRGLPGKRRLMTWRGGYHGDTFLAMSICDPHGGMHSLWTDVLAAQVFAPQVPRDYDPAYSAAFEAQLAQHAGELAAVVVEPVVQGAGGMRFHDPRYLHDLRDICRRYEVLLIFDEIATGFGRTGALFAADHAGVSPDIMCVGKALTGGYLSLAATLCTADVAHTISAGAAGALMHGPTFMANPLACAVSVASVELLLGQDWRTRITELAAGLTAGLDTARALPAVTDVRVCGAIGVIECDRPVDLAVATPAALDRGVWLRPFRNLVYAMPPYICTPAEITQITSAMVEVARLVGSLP

O=C(NNc1c(Cl)cc(Cl)cc1Cl)c1nnc(O)c2ccccc12
IC50 (Coagulation factor XII): > 50 µM (inactive)

CCOC(=O)c1cccc(NC(=O)Cn2c(CC(=O)NC)nc3ccccc32)c1
IC50 [1]: 6.01 µM (active) | IC50 [2]: 83.3 µM (inactive) | IC50 [3]: 2.05 µM (active) | EC50 [4]: > 260 µM (inactive)

O=C1N=C(NS(=O)(=O)Cc2ccccc2)S/C1=C/c1ccc2c(c1)OCO2
AC50 [5]: 2.56 µM (active)

N#Cc1c(-c2cccs2)nc(SCc2ccc(Cl)cc2)[nH]c1=O
IC50 (Fatty acid synthase [6]): 6.44 µM (active) | IC50 (SUMO-activating enzyme [7]): 18 µM (active) | EC50 [8]: > 79.4 µM (inactive) | IC50 (Major prion protein): 1.05 µM (active) | EC50 [9]: > 79.4 µM (not active) | EC50 [10]: 4.22 µM (active) | IC50 (Fatty acid synthase [11]): 5.61 µM (active) | IC50 (SUMO-activating enzyme [12]): 9.93 µM (active) | EC50 [13]: > 79.4 µM (not active)

N#Cc1c(O)nc(SCc2ccc(Cl)cc2)nc1-c1cccs1
IC50 (cells): > 138 µM (inactive) | IC50 (HEK293 [14]): 11.5 µM (active) | IC50 (HEK293 [15]): 6.99 µM (inactive) | EC50 (HEK293 [16]): 4.58 µM (active) | IC50 (HEK293 [17]): 18.9 µM (active)

COc1ccc(S(=O)(=O)N2CCCCC2)cc1N=C(S)Nc1cccc(Cl)c1C
IC50 [18]: 0.962 µM (active)

CCC(NC(=O)c1ccc2nc(Cc3ccc(OC)cc3)oc2c1)c1ccncc1 (stereo not given)
IC50 (HEK293 [14]): 8.15 µM (active) | IC50 (HEK293 [15]): 12.5 µM (inactive) | EC50 (HEK293 [16]): 4.58 µM (active) | IC50 (HEK293 [17]): 16.5 µM (active)

CN(c1ccccc1)S(=O)(=O)c1ccc(NC(=S)NC(=O)c2ccccc2)cc1
IC50 (Coagulation factor XII): > 50 µM (inactive)

Cc1cccc(NC(=O)CSCc2c(C)noc2C)c1C
IC50 (Coagulation factor XII): > 50 µM (inactive)

CC(C)C(NC(=O)CC12CC3CC(CC(C3)C1)C2)C(=O)O (stereo not given)
IC50 (Coagulation factor XII): > 50 µM (inactive)

CCN(CC)CCn1c2ccccc2c(=O)c2c(O)ccc(O)c21
IC50 [19]: 64.6 µM (inactive) | AC50 [5]: 3.16 µM (active)

CCC1(OC(=O)CN(C)C)C(=O)OCc2c1cc1n(c2=O)Cc2cc3c(N)cccc3nc2-1 (stereo not given)
IC50 [18]: 2.92 µM (active)

O=C(c1ccccc1F)N1CC[C@@H]2[C@H]1c1cc(Br)ccc1N[C@@H]2CO
AC50 [20]: 1.53 µM (active)

O=C(C[C@H]1C[C@@H]2c3cc(NC(=O)c4cccnc4)ccc3O[C@@H]2[C@@H](CO)O1)NCC(F)(F)F
AC50 [20]: 16.8 µM (active)

CCN1[C@H](C(=O)NCc2ccccc2)[C@@H](CO)[C@@H]2Cn3c(ccc(-c4cccnc4)c3=O)[C@@H]21
AC50 [20]: 13.2 µM (active)

CC(=O)Oc1ccc2c(c1)C(=O)c1ccccc1C2=O
AC50 [5]: 36.2 µM (active)
